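Method: 48-hour compound exposure of cells in 96-well plates, five concentrations, linear interpolation of endpoints. TGI denotes the concentration required for complete inhibition of growth.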
Tested on: SN12C renal
Assay: inhibition of tumour cell growth, NCI panel, 48 h

`CCOC(=S)SCC(=O)O` and `Cc1cccc(Cn2c3c(c4cc(O)ccc42)C(=O)c2ccccc2C3=O)c1` cannot be ordered by TGI: > 100 µM for the first, > 100 µM for the second.

For `CC1=Nc2ccccc2OC(C)=C1N=Nc1ccc2nc(C)[nH]c2c1`, the TGI was > 100 µM.

Tested on: BT-549 breast
Assay: inhibition of tumour cell growth, NCI panel, 48 h

`O=C(N/N=C/c1ccc(Cl)cc1)c1c(Cl)c(Cl)c(Cl)c(Cl)c1-c1nc2ccccc2[nH]1` and `CC1=Nc2ccccc2OC(C)=C1N=Nc1ccc2nc(C)[nH]c2c1` cannot be ordered by TGI: > 100 µM for the first, > 100 µM for the second.

`CCOC(=S)SCC(=O)O` and `Cc1cccc(Cn2c3c(c4cc(O)ccc42)C(=O)c2ccccc2C3=O)c1` cannot be ordered by TGI: > 100 µM for the first, > 86.7 µM for the second.

Tested on: A498 renal
Assay: inhibition of tumour cell growth, NCI panel, 48 h

`CC(=O)/C=C/C1=C(C)CCCC1(C)CC(C)C` (stereo not drawn) and `C=C1CCN2CC[C@@H](OC(=O)/C(C)=C\C)[C@@H]12` cannot be ordered by TGI: > 100 µM for the first, > 100 µM for the second.

First: O=[N+]([O-])c1ccc2[nH]nc(OCc3ccccc3Cl)c2c1
Second: CC1=Nc2ccccc2OC(C)=C1N=Nc1ccc2nc(C)[nH]c2c1
The TGI of the first is higher: > 100 µM for the first, 99.5 µM for the second.

`O=C(N/N=C/c1ccc(Cl)cc1)c1c(Cl)c(Cl)c(Cl)c(Cl)c1-c1nc2ccccc2[nH]1` and `Cc1cccc(Cn2c3c(c4cc(O)ccc42)C(=O)c2ccccc2C3=O)c1` cannot be ordered by TGI: > 100 µM for the first, > 100 µM for the second.

`CCOC(=S)SCC(=O)O` was tested, and the TGI was > 100 µM.

Tested on: MCF7 breast
Assay: inhibition of tumour cell growth, NCI panel, 48 h

First: CC(=O)/C=C/C1=C(C)CCCC1(C)CC(C)C (stereo not drawn)
Second: C=C1CCN2CC[C@@H](OC(=O)/C(C)=C\C)[C@@H]12
The TGI of the first is lower: 66.9 µM for the first, > 100 µM for the second.

`O=C(N/N=C/c1ccc(Cl)cc1)c1c(Cl)c(Cl)c(Cl)c(Cl)c1-c1nc2ccccc2[nH]1` and `CC1=Nc2ccccc2OC(C)=C1N=Nc1ccc2nc(C)[nH]c2c1` cannot be ordered by TGI: > 100 µM for the first, > 100 µM for the second.

Going from `CCOC(=S)SCC(=O)O` to `Cc1cccc(Cn2c3c(c4cc(O)ccc42)C(=O)c2ccccc2C3=O)c1`, the TGI falls from > 100 µM to 98.1 µM.

Tested on: CCRF-CEM leukemia
Assay: inhibition of tumour cell growth, NCI panel, 48 h

Going from `CC(=O)/C=C/C1=C(C)CCCC1(C)CC(C)C` (stereo not drawn) to `C=C1CCN2CC[C@@H](OC(=O)/C(C)=C\C)[C@@H]12`, the TGI rises from 36.6 µM to > 100 µM.

`O=[N+]([O-])c1ccc2[nH]nc(OCc3ccccc3Cl)c2c1` and `CC1=Nc2ccccc2OC(C)=C1N=Nc1ccc2nc(C)[nH]c2c1` cannot be ordered by TGI: > 100 µM for the first, > 100 µM for the second.

`O=C(N/N=C/c1ccc(Cl)cc1)c1c(Cl)c(Cl)c(Cl)c(Cl)c1-c1nc2ccccc2[nH]1` and `Cc1cccc(Cn2c3c(c4cc(O)ccc42)C(=O)c2ccccc2C3=O)c1` cannot be ordered by TGI: > 100 µM for the first, > 100 µM for the second.

`CCOC(=S)SCC(=O)O` gave a TGI of 26.6 µM.

Tested on: HCT-116 colon
Assay: inhibition of tumour cell growth, NCI panel, 48 h

First: CC(=O)/C=C/C1=C(C)CCCC1(C)CC(C)C (stereo not drawn)
Second: C=C1CCN2CC[C@@H](OC(=O)/C(C)=C\C)[C@@H]12
The TGI of the first is lower: 77.8 µM for the first, > 100 µM for the second.

First: O=[N+]([O-])c1ccc2[nH]nc(OCc3ccccc3Cl)c2c1
Second: CC1=Nc2ccccc2OC(C)=C1N=Nc1ccc2nc(C)[nH]c2c1
The TGI of the first is lower: 74.7 µM for the first, > 100 µM for the second.

`O=C(N/N=C/c1ccc(Cl)cc1)c1c(Cl)c(Cl)c(Cl)c(Cl)c1-c1nc2ccccc2[nH]1` and `Cc1cccc(Cn2c3c(c4cc(O)ccc42)C(=O)c2ccccc2C3=O)c1` cannot be ordered by TGI: > 100 µM for the first, > 100 µM for the second.

With `CCOC(=S)SCC(=O)O` the TGI was > 100 µM.

Tested on: HCC-2998 colon
Assay: inhibition of tumour cell growth, NCI panel, 48 h

Compared with `CC(=O)/C=C/C1=C(C)CCCC1(C)CC(C)C` (stereo not drawn), `C=C1CCN2CC[C@@H](OC(=O)/C(C)=C\C)[C@@H]12` is higher in TGI: 35.7 µM for the first, > 100 µM for the second.

`O=[N+]([O-])c1ccc2[nH]nc(OCc3ccccc3Cl)c2c1` and `CC1=Nc2ccccc2OC(C)=C1N=Nc1ccc2nc(C)[nH]c2c1` cannot be ordered by TGI: > 100 µM for the first, > 100 µM for the second.

For `O=C(N/N=C/c1ccc(Cl)cc1)c1c(Cl)c(Cl)c(Cl)c(Cl)c1-c1nc2ccccc2[nH]1`, the TGI was > 100 µM.

Tested on: SW-620 colon
Assay: inhibition of tumour cell growth, NCI panel, 48 h

First: CC(=O)/C=C/C1=C(C)CCCC1(C)CC(C)C (stereo not drawn)
Second: C=C1CCN2CC[C@@H](OC(=O)/C(C)=C\C)[C@@H]12
The TGI of the first is lower: 44.1 µM for the first, > 100 µM for the second.

`O=C(N/N=C/c1ccc(Cl)cc1)c1c(Cl)c(Cl)c(Cl)c(Cl)c1-c1nc2ccccc2[nH]1` and `CC1=Nc2ccccc2OC(C)=C1N=Nc1ccc2nc(C)[nH]c2c1` cannot be ordered by TGI: > 100 µM for the first, > 100 µM for the second.

`CCOC(=S)SCC(=O)O` and `Cc1cccc(Cn2c3c(c4cc(O)ccc42)C(=O)c2ccccc2C3=O)c1` cannot be ordered by TGI: > 100 µM for the first, > 100 µM for the second.

Tested on: DU-145 prostate
Assay: inhibition of tumour cell growth, NCI panel, 48 h

`CC(=O)/C=C/C1=C(C)CCCC1(C)CC(C)C` (stereo not drawn) and `C=C1CCN2CC[C@@H](OC(=O)/C(C)=C\C)[C@@H]12` cannot be ordered by TGI: > 100 µM for the first, > 100 µM for the second.

`O=[N+]([O-])c1ccc2[nH]nc(OCc3ccccc3Cl)c2c1` and `CC1=Nc2ccccc2OC(C)=C1N=Nc1ccc2nc(C)[nH]c2c1` cannot be ordered by TGI: > 100 µM for the first, > 100 µM for the second.

`O=C(N/N=C/c1ccc(Cl)cc1)c1c(Cl)c(Cl)c(Cl)c(Cl)c1-c1nc2ccccc2[nH]1` and `Cc1cccc(Cn2c3c(c4cc(O)ccc42)C(=O)c2ccccc2C3=O)c1` cannot be ordered by TGI: > 100 µM for the first, > 100 µM for the second.

Tested on: MOLT-4 leukemia
Assay: inhibition of tumour cell growth, NCI panel, 48 h

First: CC(=O)/C=C/C1=C(C)CCCC1(C)CC(C)C (stereo not drawn)
Second: C=C1CCN2CC[C@@H](OC(=O)/C(C)=C\C)[C@@H]12
The TGI of the first is lower: 41.5 µM for the first, > 100 µM for the second.

`O=[N+]([O-])c1ccc2[nH]nc(OCc3ccccc3Cl)c2c1` and `CC1=Nc2ccccc2OC(C)=C1N=Nc1ccc2nc(C)[nH]c2c1` cannot be ordered by TGI: > 100 µM for the first, > 100 µM for the second.

`O=C(N/N=C/c1ccc(Cl)cc1)c1c(Cl)c(Cl)c(Cl)c(Cl)c1-c1nc2ccccc2[nH]1` and `Cc1cccc(Cn2c3c(c4cc(O)ccc42)C(=O)c2ccccc2C3=O)c1` cannot be ordered by TGI: > 100 µM for the first, > 100 µM for the second.

For `CCOC(=S)SCC(=O)O`, the TGI was > 100 µM.

Tested on: SK-MEL-5 melanoma
Assay: inhibition of tumour cell growth, NCI panel, 48 h

Compared with `CC(=O)/C=C/C1=C(C)CCCC1(C)CC(C)C` (stereo not drawn), `C=C1CCN2CC[C@@H](OC(=O)/C(C)=C\C)[C@@H]12` is higher in TGI: 49.1 µM for the first, > 100 µM for the second.

`O=[N+]([O-])c1ccc2[nH]nc(OCc3ccccc3Cl)c2c1` and `Cc1cccc(Cn2c3c(c4cc(O)ccc42)C(=O)c2ccccc2C3=O)c1` cannot be ordered by TGI: > 100 µM for the first, > 100 µM for the second.

`O=C(N/N=C/c1ccc(Cl)cc1)c1c(Cl)c(Cl)c(Cl)c(Cl)c1-c1nc2ccccc2[nH]1` and `CCOC(=S)SCC(=O)O` cannot be ordered by TGI: > 100 µM for the first, > 100 µM for the second.

Tested on: HL-60(TB) leukemia
Assay: inhibition of tumour cell growth, NCI panel, 48 h

First: CC(=O)/C=C/C1=C(C)CCCC1(C)CC(C)C (stereo not drawn)
Second: CCOC(=S)SCC(=O)O
The TGI of the first is 5.3-fold higher: 30.3 µM for the first, 5.74 µM for the second.

`O=[N+]([O-])c1ccc2[nH]nc(OCc3ccccc3Cl)c2c1` and `CC1=Nc2ccccc2OC(C)=C1N=Nc1ccc2nc(C)[nH]c2c1` cannot be ordered by TGI: > 100 µM for the first, > 100 µM for the second.

`O=C(N/N=C/c1ccc(Cl)cc1)c1c(Cl)c(Cl)c(Cl)c(Cl)c1-c1nc2ccccc2[nH]1` and `Cc1cccc(Cn2c3c(c4cc(O)ccc42)C(=O)c2ccccc2C3=O)c1` cannot be ordered by TGI: > 100 µM for the first, > 89 µM for the second.

Tested on: CAKI-1 renal
Assay: inhibition of tumour cell growth, NCI panel, 48 h

`CC(=O)/C=C/C1=C(C)CCCC1(C)CC(C)C` (stereo not drawn) and `C=C1CCN2CC[C@@H](OC(=O)/C(C)=C\C)[C@@H]12` cannot be ordered by TGI: > 100 µM for the first, > 100 µM for the second.

`O=[N+]([O-])c1ccc2[nH]nc(OCc3ccccc3Cl)c2c1` and `CC1=Nc2ccccc2OC(C)=C1N=Nc1ccc2nc(C)[nH]c2c1` cannot be ordered by TGI: > 100 µM for the first, > 100 µM for the second.

`O=C(N/N=C/c1ccc(Cl)cc1)c1c(Cl)c(Cl)c(Cl)c(Cl)c1-c1nc2ccccc2[nH]1` and `Cc1cccc(Cn2c3c(c4cc(O)ccc42)C(=O)c2ccccc2C3=O)c1` cannot be ordered by TGI: > 100 µM for the first, > 100 µM for the second.

`CCOC(=S)SCC(=O)O` was tested, and the TGI was > 100 µM.

Tested on: SNB-75 CNS
Assay: inhibition of tumour cell growth, NCI panel, 48 h

Compared with `CC(=O)/C=C/C1=C(C)CCCC1(C)CC(C)C` (stereo not drawn), `C=C1CCN2CC[C@@H](OC(=O)/C(C)=C\C)[C@@H]12` is higher in TGI: 93 µM for the first, > 100 µM for the second.

`O=[N+]([O-])c1ccc2[nH]nc(OCc3ccccc3Cl)c2c1` and `CC1=Nc2ccccc2OC(C)=C1N=Nc1ccc2nc(C)[nH]c2c1` cannot be ordered by TGI: > 100 µM for the first, > 100 µM for the second.

First: O=C(N/N=C/c1ccc(Cl)cc1)c1c(Cl)c(Cl)c(Cl)c(Cl)c1-c1nc2ccccc2[nH]1
Second: Cc1cccc(Cn2c3c(c4cc(O)ccc42)C(=O)c2ccccc2C3=O)c1
The TGI of the first is higher: > 100 µM for the first, 8.63 µM for the second.

With `CCOC(=S)SCC(=O)O` the TGI was > 100 µM.

Tested on: NCI-H23 lung
Assay: inhibition of tumour cell growth, NCI panel, 48 h

`CC(=O)/C=C/C1=C(C)CCCC1(C)CC(C)C` (stereo not drawn) and `C=C1CCN2CC[C@@H](OC(=O)/C(C)=C\C)[C@@H]12` cannot be ordered by TGI: > 100 µM for the first, > 100 µM for the second.

`O=[N+]([O-])c1ccc2[nH]nc(OCc3ccccc3Cl)c2c1` and `CC1=Nc2ccccc2OC(C)=C1N=Nc1ccc2nc(C)[nH]c2c1` cannot be ordered by TGI: > 100 µM for the first, > 100 µM for the second.

`O=C(N/N=C/c1ccc(Cl)cc1)c1c(Cl)c(Cl)c(Cl)c(Cl)c1-c1nc2ccccc2[nH]1` and `Cc1cccc(Cn2c3c(c4cc(O)ccc42)C(=O)c2ccccc2C3=O)c1` cannot be ordered by TGI: > 100 µM for the first, > 100 µM for the second.

In the case of `CCOC(=S)SCC(=O)O`, the TGI is reported as > 100 µM.

Tested on: HT29 colon
Assay: inhibition of tumour cell growth, NCI panel, 48 h

Going from `CC(=O)/C=C/C1=C(C)CCCC1(C)CC(C)C` (stereo not drawn) to `C=C1CCN2CC[C@@H](OC(=O)/C(C)=C\C)[C@@H]12`, the TGI rises from 87.5 µM to > 100 µM.

`O=[N+]([O-])c1ccc2[nH]nc(OCc3ccccc3Cl)c2c1` and `CC1=Nc2ccccc2OC(C)=C1N=Nc1ccc2nc(C)[nH]c2c1` cannot be ordered by TGI: > 100 µM for the first, > 100 µM for the second.

`O=C(N/N=C/c1ccc(Cl)cc1)c1c(Cl)c(Cl)c(Cl)c(Cl)c1-c1nc2ccccc2[nH]1` and `Cc1cccc(Cn2c3c(c4cc(O)ccc42)C(=O)c2ccccc2C3=O)c1` cannot be ordered by TGI: > 100 µM for the first, > 100 µM for the second.

With `CCOC(=S)SCC(=O)O` the TGI was > 100 µM.

— PubChem BioAssay (NCI)
